The values below come from patent US20230110824A1, “FLUORESCENT PROBES FOR DETECTION OF CALCIFICATIONS” (TECHNISCHE UNIVERSITÄT BERLIN, priority 2020, published 2023).

Data set [1] is described as follows: Staining of mouse rib sections with the dyes, epifluorescence microscopy. Type of data set: binding, mouse (C57BL/6). The following applies: for dependence of fluorescence intensity of rib staining on incubation time: 10 to 120 mins; for dependence of fluorescence intensity of rib staining on dye concentration: 1, 0.1 and 0.01 mg/mL in HEPES; for HAP-associated staining / binding to HAP in rib sections: 1 mg/mL. As for the experimental part: Mouse ribs (C57BL/6) were fixed in 4% paraformaldehyde (PFA). Ribs were processed for wax embedding through sequential immersion in increasing concentrations of ethanol followed by immersion in xylene/clearene and paraffin wax embedding. Rib sections (6 μm thickness) were dewaxed with xylene and rehydrated with decreasing concentrations of ethanol and distilled water (dH2O). Rib sections were incubated with a variety of either namely((4-(5,5-difluoro-1,3,7,9-tetramethyl-5H-414,514-dipyrrolo[1,2-c:2′,1′-f][1,3,2]diazaborinin-10-yl)phenyl)phosphonic acid) (BODIPY-PPA), 5,10,15,20-tetrakis[p-phenylphosphonicacid] porphyrin (p-H8TPPA) and 5,10,15,20-tetrakis[m-phenylphosphonic acid] porphyrin (m-H8TPPA) dyes. […] Meso-tetra(4-phosphorylphenyl)porphine, porph-tetra-meta-phenyl phosphonate, BODIPY-PPA; and BODIPY-PPA-2Et2 were all incubated for 120 mins when diluted to 1, 0.1 and 0.01 mg/mL in HEPES, and incubated at 1 mg/mL for 120, 60, 30, 20 and 10 mins. Images were obtained for up to two weeks after staining. p-H8TPPA-iPr8 and p-TBr3PPA-iPr2 were only incubated for 120 mins at 1 mg/mL, including an incubation with dimethyl sulfoxide (DMSO). Negative controls were included by incubating ribs with the buffers alone. Following incubation with the respective dyes, slides were washed with their respective buffers (3×5 mins) and counter stained with DAPI, diluted in PBS, for 20 mins. After washing with PBS (3×5 mins), slides were mounted with 70% glycerol, diluted in PBS. Images were acquired on a Leica DM5500 epifluorescent microscope, using a 20× objective. The exposure times used to capture these images were kept the same throughout imaging. Images were processed using the FIJI software.
To further probe their HAP binding properties, we have used laterally sectioned mouse ribs as an example of HAP, which were incubated with p-H8TPPA at concentrations ranging from 0.01 to 1.0 mg/mL in HEPES buffer for varying times at room temperature and imaged by fluorescence microscopy (for details see description of the figures), to assess HAP binding capability.

A short description of data set [2]: Precipitation / solubility of the dye in incubation buffers. The procedure:
Mouse ribs were incubated for 120 mins with p-TBr3PPA-iPr2 (5,10,15-tris[p-bromophenyl]-20-[p-phenyl-, bis(1-methylethyl) ester phosphonic acid] porphyrin) diluted to 1 mg/mL in different buffers.
Mouse ribs were incubated for 120 mins with p-H8TPPA-iPr8 phosphonate diester diluted to 1 mg/mL in different buffers.

The subject of data set [3] is THP-1 monocytes. As to the kind of experiment: Cellular uptake / cell labeling of proliferating THP-1 monocytes, fluorescence emission scan. Type of data set: cell-based, human. The following applies: loading buffer, 60 min, 420 nm excitation. As for the experimental part: In addition to the application on bone sections, the phenylphosphonic acid/esterified porphyrins' propensity for cellular uptake was tested on proliferating human cells (FIG. 15). Aiming to use phenylphosphonic acid functionalized porphyrins in in vivo applications, the negative charge on the deprotonated phosphonate might be a handicap by limiting cell permeability. Optional demasking of phosphonate esters in metabolic surroundings might occur, recreating the metal binding PhPO3^2-. This possibility led us to examine p-H8TPPA and p-H8TPPA-iPr8 suitability for in vivo cellular experiments by testing their permeability on proliferating human THP-1 monocytes.
We have treated THP-1 monocytes with the Phosphorylphenyl-modified porphyrins in loading buffer (10 mM HEPES, pH 7.35, 120 mM NaCl, 5.4 mM KCl, 5 mM glucose, 1.3 mM CaCl2, 1 mM MgCl2, 1 mM NaH2PO4, 0.3% bovine serum albumin) for 60 min. Excess fluorescence dye was removed by multiple washing steps before fluorescence emission scanning using 420 nm excitation (Tecan Infinite M200 reader; Tecan, Germany). […] We hypothesize that the phosphonates, being somewhat amphipathic, were able to penetrate the cell membrane, whereas the more nonpolar esters were not as efficient.

Data set [4] in a line: Absorbance and fluorescence spectra in presence and absence of HAP (Flexstation 3 microplate reader). Type of data set: binding. As for the experimental part: The absorbance (A) and fluorescence (B) spectra of 0.01 mg mL^−1p-H8TPPA in the presence (dashed lines) and absence (solid lines) of HAP. The dye was diluted to 0.01 mg mL^−1 in PBS (pH 7.4, green), TBS (pH 7.4, orange), HEPES (pH 7.4, purple) and d H2O with absorbance and fluorescence spectra obtained using the Flexstation 3 microplate reader.
Characterization of Probes: The structure and purity of the probes were characterized by liquid chromatography, infrared, NMR, and/or mass spectrometry. Their optical properties were characterized by absorption and fluorescence spectrophotometry in the presence and absence of authentic hydroxyapatite, whitlockite, and other doped apatites. The dyes were also tested on mouse ribs as an example of hydroxyapatite in tissue.
This is also reflected in the maximal peak of the fluorescence intensity (FIG. 14 B), with a shift from λem 646-648 nm for PBS, TBS and HEPES to λem 675 nm when diluted in dH2O. […] Previously reported bisphosphonate fluorophores had […] aliphatic carbons between the fluorescent core and HAP binding, therefore, such systems merely functioned as fluorescent labels with no change in emission due to HAP binding since they lacked synergistic interaction between the HAP and the fluorescent core. Phosphonic acids that have direct sp^2 bonds to the fluorescent core could extend the conjugation of the fluorescent core to the HAP and thereby could initiate changes in the ground and excited states resulting in quenching or enhancing the fluorescence emission.

For data set [5], the system named is intestinal Caco-2 cell line. The following applies: at high concentrations; cited from earlier work.
[6] abbreviates: 1 mg/mL in HEPES, 120 mins, imaged up to 14 days / two weeks after staining.

Entries after “also recorded” stand apart in the source; their conditions may differ.

Take `O=P(O)(O)c1cccc(-c2c3nc(c(-c4cccc(P(=O)(O)O)c4)c4ccc([nH]4)c(-c4cccc(P(=O)(O)O)c4)c4nc(c(-c5cccc(P(=O)(O)O)c5)c5ccc2[nH]5)C=C4)C=C3)c1` [m-H8TPPA, 5,10,15,20-tetrakis[m-phenylphosphonic acid] porphyrin]: the “dependence of fluorescence intensity of rib staining on incubation time” value (“dependence … on incubation time” for short) in data set [1] (1 mg/mL in HEPES) is “no clear difference in fluorescence intensity”. Besides, the “change of fluorescence intensity after staining” value (“change of fluorescence intensity” below) in data set [1] (setting [6]) is “no noticeable decrease in fluorescence intensity”. Also, in data set [1] (120 mins), the “dependence of fluorescence intensity of rib staining on dye concentration” value (from here on “dependence … on dye concentration”) is “little to no difference in the fluorescent intensity”. Further, the “duration of fluorescence of stained ribs” value in data set [1] (compared to p-H8TPPA) is listed as “longer fluorescence period”.
In the case of “((4-(5,5-difluoro-1,3,7,9-tetramethyl-5H-414,514-dipyrrolo[1,2-c:2′,1′-f][1,3,2]diazaborinin-10-yl)phenyl)phosphonic acid) [BODIPY-PPA]”, the “dependence … on incubation time” value in data set [1] (1 mg/mL in HEPES) was “decrease in fluorescence intensity is observed for decreasing incubation times”. In addition, the “change of fluorescence intensity” value in data set [1] (setting [6]) was “only a very slight decrease in fluorescence intensity”. The “dependence … on dye concentration” value in data set [1] (120 mins) is reported as “strong concentration dependency of staining”.
As to `CC(C)OP(=O)(OC(C)C)c1ccc(-c2c3nc(c(-c4ccc(Br)cc4)c4ccc([nH]4)c(-c4ccc(Br)cc4)c4nc(c(-c5ccc(Br)cc5)c5ccc2[nH]5)C=C4)C=C3)cc1` [p-TBr3PPA-iPr2, 5,10,15-tris[p-bromophenyl]-20-[p-phenyl-, bis(1-methylethyl) esterphosphonic acid] porphyrin], the “HAP-associated staining / binding to HAP in rib sections” value (from here on “HAP-associated staining / binding”) in data set [1] (120 mins) is recorded as “lack of HAP-associated staining; also recorded: no binding to HAP occurring”. Besides, the “behaviour of the dye during incubation” value in data set [2] (1 mg/mL in DMSO) was “precipitation of the dye”. Further, in data set [2] (1 mg/mL in HEPES, PBS, TBS and dH2O, 120 mins), the “behaviour of the dye during the incubation period” value is recorded as “precipitated”.
On to `CC(C)OP(=O)(OC(C)C)c1ccc(-c2c3nc(c(-c4ccc(P(=O)(OC(C)C)OC(C)C)cc4)c4ccc([nH]4)c(-c4ccc(P(=O)(OC(C)C)OC(C)C)cc4)c4nc(c(-c5ccc(P(=O)(OC(C)C)OC(C)C)cc5)c5ccc2[nH]5)C=C4)C=C3)cc1` [p-H8TPPA-iPr8], for which the “HAP-associated staining / binding” value in data set [1] (120 mins) is “no binding to HAP occurring; also recorded: complete lack of HAP-associated staining”. Besides, in data set [3], the “cell labeling / passage through the cellular membrane” value is recorded as “hindered their passage through the cellular membrane”. In addition, in data set [2], the “solubility in the aqueous” value was “dramatically reduced their solubilities”.
Consider `O=P(O)(O)c1ccc(-c2c3nc(c(-c4ccc(P(=O)(O)O)cc4)c4ccc([nH]4)c(-c4ccc(P(=O)(O)O)cc4)c4nc(c(-c5ccc(P(=O)(O)O)cc5)c5ccc2[nH]5)C=C4)C=C3)cc1` [p-H8TPPA, 5,10,15,20-tetrakis[p-phenylphosphonic acid] porphyrin], for which the results for the “fluorescent signal of stained ribs” value in data set [1] (0.1 mg/mL in HEPES) and in data set [1] (1 mg/mL diluted in dH2O) were “clear fluorescent signal” and “no fluorescent signal”, respectively. For the same compound, the “dependence … on incubation time” value in data set [1] (1 mg/mL in HEPES) was “clear increase in fluorescence intensity with an increasing incubation time”. Besides, in data set [1] (1 mg/mL in HEPES, PBS, TBS), the “difference of fluorescence intensity between buffers” value is listed as “no clear difference”. In data set [1] (1 mg/mL in HEPES, day of staining vs 7 days later), the “change of fluorescence intensity” value is given as “noticeable decrease in fluorescence intensity”. Besides, in data set [1] (1 mg/mL in HEPES, incubated for 10 mins), the “fluorescent signal of stained ribs compared to HEPES only negative control” value is given as “clear fluorescent signal”. For the same compound, the “HAP-associated staining / binding” value in data set [1] (120 mins) is given as “specific for hydroxyapatite”. In data set [1] (120 mins), the “dependence … on dye concentration” value is listed as “binds to HAP with a concentration dependence”. In addition, the “fluorescent signal after staining” value is listed as “weak fluorescent signal” in data set [1] (diluted in PBS, after two weeks); “fluorescent signal above background signal” in data set [1] (diluted in PBS, one week after staining); “fluorescent signal above background signal” in data set [1] (diluted in TBS, one week after staining). The “fluorescence intensity upon HAP binding” value in data set [4] is on record as “increased”. Besides, the “increase of fluorescence intensity upon HAP binding” value in data set [4] (0.01 mg mL^-1 in HEPES pH 7.4) stood at 2.0 fold; in data set [4] (0.01 mg mL^-1 in PBS pH 7.4), 1.8 fold; in data set [4] (0.01 mg mL^-1 in TBS pH 7.4) it was 2.0 fold; in data set [4] (0.01 mg mL^-1 in d H2O), 1.6 fold. Further, the “maximal peak of the fluorescence intensity (λem)” value in data set [4] (PBS, TBS and HEPES) is 646-648 nm; in data set [4] (diluted in dH2O) it was 675 nm. For the same compound, the absorbance peak maximum in data set [4] (PBS, TBS and HEPES (before shift)) came out at 415 nm; in data set [4] (diluted in dH2O), 435 nm. Also, the “cell labeling / passage through the cellular membrane” value in data set [3] was “much more efficient in cell labeling; also recorded: can travel through the cellular membrane”. The “toxicity for an intestinal cell line” value in data set [5] is “no toxicity”.
